# Tests used:
# [1] = target: T1, bovine progesterone receptor (Bos taurus, UniProt F1N712); assay: Progesterone receptor binding assay (CEREP, 3H-R5020 ligand, uterus tissue); details: bovine PR; 3H-R5020 as ligand, uterus tissue as receptor source; read-out: Progesterone Receptor binding (pKi) (converted)
# T1 construct: uterus tissue as the source of progesterone receptor; tissue CEREP Progesterone receptor-814; host or cells: bovine uterus tissue (the cited method, Hurd & Moudgil 1988, used calf uterus)
# T1 sequence (F1N712 1-914): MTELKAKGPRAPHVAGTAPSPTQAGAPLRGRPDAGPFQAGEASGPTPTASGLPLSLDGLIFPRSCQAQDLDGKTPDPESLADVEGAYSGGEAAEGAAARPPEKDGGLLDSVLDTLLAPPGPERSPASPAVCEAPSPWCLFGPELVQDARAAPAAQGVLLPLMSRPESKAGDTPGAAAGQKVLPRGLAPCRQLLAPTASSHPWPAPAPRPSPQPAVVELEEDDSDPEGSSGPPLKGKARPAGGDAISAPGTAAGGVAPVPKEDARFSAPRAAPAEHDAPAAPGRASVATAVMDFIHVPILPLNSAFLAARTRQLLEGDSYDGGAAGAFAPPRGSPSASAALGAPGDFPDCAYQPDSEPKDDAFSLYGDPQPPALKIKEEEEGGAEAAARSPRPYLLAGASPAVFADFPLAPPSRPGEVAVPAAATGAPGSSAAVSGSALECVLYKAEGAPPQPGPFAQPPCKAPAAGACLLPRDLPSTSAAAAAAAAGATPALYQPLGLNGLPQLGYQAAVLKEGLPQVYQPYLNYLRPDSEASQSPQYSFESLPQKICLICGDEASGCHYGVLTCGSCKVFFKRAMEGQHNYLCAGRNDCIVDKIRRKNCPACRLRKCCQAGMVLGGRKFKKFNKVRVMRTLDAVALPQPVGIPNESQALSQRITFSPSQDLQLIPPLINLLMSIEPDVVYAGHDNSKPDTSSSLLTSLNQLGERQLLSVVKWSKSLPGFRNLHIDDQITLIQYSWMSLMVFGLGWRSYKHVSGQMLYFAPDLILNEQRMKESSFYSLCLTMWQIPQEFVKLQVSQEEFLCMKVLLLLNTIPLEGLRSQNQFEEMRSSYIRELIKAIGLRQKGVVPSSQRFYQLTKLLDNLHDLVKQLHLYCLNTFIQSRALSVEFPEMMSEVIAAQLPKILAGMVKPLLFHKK
# Experimental: The progesterone receptor (PR) binding assays were performed at CEREP (Celle I'Evescault, France). The binding to the bovine progesterone receptor (Assay Cat No: Progesterone receptor-814) was measured using 3H-R5020 as ligand and uterus tissue as the source of progesterone receptor. The assay was performed as described by Hurd & Moudgil [1988]. […] The results of the receptor binding assay are presented as the individual pKi values for the bovine PR which were determined by measuring the binding activity for a concentration range of each compound.
# [2] = tested on: progesterone receptor (alkaline phosphatase expression in T47D human breast carcinoma cells); assay: Progesterone-dependent alkaline phosphatase expression assay (AP assay), agonistic and antagonistic mode; assay type: cell-based; details: for inhibition at 0.1 µM: 100 nM compound, inhibition of alkaline phosphatase induction by 1 nM Dydrogesterone, read-out: PI [100 nM] (% inhibition); for activation at 0.1 µM: 48 h, 100 nM compound alone, alkaline phosphatase induction, 100% = 1 nM Dydrogesterone, read-out: PS [100 nM] (% stimulation); for IC50: antagonistic potency against 1 nM Dydrogesterone; for EC50: agonistic potency
# Experimental: The progesterone-dependent modulation of alkaline phosphatase expression was examined using T47D human breast carcinoma cells [Keydar et al., 1979]. The assay was performed as previously described by Di Lorenzo et al. (1991) with the modification of using Dydrogesterone as comparative progestin to determine the antagonistic and agonistic activity.
# The cell line was purchased from CLS Cell Lines Service (Hildastrasse 21, D-69214 Eppelheim, Germany).
# In brief, the cells were plated in 96-well plates at 40,000 cells/well using the following growth medium: RPMI 1640 with: 10% FBS, 1 mM Sodium Pyruvat MEM, 10 mM Hepes, 0.01 mg/ml Bovine insulin, and 25 μg/ml Gentamycin. After 24 h of cultivation, the growth medium was replaced with medium containing 2% fetal bovine serum and the test compounds were added to each well to achieve the appropriate compound concentration: For determination of agonistic activity only the test compounds were added; for measurement of antagonistic activity the test compounds and additionally Dydrogesterone as standard progesterone agonist was added to a final concentration of 1 nM. After 48 h of cultivation, the medium was removed and the cells were washed with 200 μl of Dulbecco's phosphate-buffered saline without calcium and magnesium (PBS(−)).
# Then the cells were fixed with 3.7% formaldehyde in phosphate-buffered saline for 15 min at 22° C. After washing the cells with PBS, 100 μl of a […] (pNPP) solution (pNPP Liquid Substrate System; Sigma) was added to each well and incubated for 2 h at room temperature protected from light. The reaction was stopped with 100 μl 1N NaOH and the absorbance was measured with a spectrophotometer (Victor, Perkin Elmer) at 405 nm.
# The results are expressed as alkaline phosphatase induction (as 100% with 1 nM Dydrogesterone) or inhibition (against alkaline phosphatase induction by 1 nM Dydrogesterone) at a certain concentration of test compound.
# Calculations: % stimulation=(effect compound−basal)/(effect dydro 1 nM−basal)*100 % inhibition of 1 nM Dydro=100*{1−[(effect compound·basal)/(effect dydro 1 nM·basal)]}
# For each compound the % inhibition (PI) and % stimulation (PS), respectively, at a compound concentration of 100 nM was determined. For selected compounds, the corresponding values were measured for several different concentrations, and subsequently were plotted against the concentration of the test compound, and used to calculate the IC50 value (for the antagonistic potency; the IC50 value is the concentration (nM), required to reduce the maximal response by 50%) and EC50 values (for the agonistic potency; the EC50 value is the effective concentration (nM) that produced 50% of the maximum response), respectively.
# cycling guinea pigs = assay: Guinea pig model (luteolysis and uterine PR expression in cycling guinea pigs); assay type: in vivo; details: 10mg/kg s.c. once daily on days 10-17 of the cycle; FIG. 1
# Description: An assay how to assess the progesterone antagonists (PAs) and progesterone receptor modulators (PRMs) with respect to PR agonistic and antagonistic activities in vivo is described by Elger et al [2000] and within WO 04/014935 using cycling guinea pigs. In this assay, pure PR antagonists inhibit luteolysis at the end of the ovarian cycle, whereas PR agonist and SPRMs support luteolysis, i.e. this is a very sensitive in vivo method to reveal residual agonistic activity of SPRMs. Inhibition of luteolysis is reflected by elevated serum progesterone levels at day 10-17 and inhibition of uterine prostaglandin F2α, as well as by certain histological characteristics in uterus and ovary, such as increased expression of progesterone receptors and decreased glandular differentiation in the uterus, as well as persistence of large intact corpora lutea up to day 18.
# Adult female guinea pigs (strain Dunkin Hartley, Crl:HA; body weight 500-700 g) are purchased from Charles River (Sulzfeld, Germany). Blood samples are drawn from the Vena saphena three times a week to monitor ovarian cycles by determination of progesterone levels. […]
# Antiluteolytic activity is evaluated by assessment of serum progesterone profiles throughout the treatment period from day 10 to day 17 (FIG. 1).
# Antiprogestational effects on the uterus are assessed by determination of the degree of PR expression. […]
Structure (SMILES),Ki [1],inhibition at 0.1 µM [2],activation at 0.1 µM [2],IC50 [2],EC50 [2],antiluteolytic activity (serum progesterone levels day 10 to day 17) (cycling guinea pigs)
CC(=O)[C@H]1CC[C@H]2[C@@H]3CCC4=CC(=O)CC[C@@]4(C)[C@@H]3CC[C@]12CCCc1ccc(/C=N/O)cc1 [No. 1],1000 nM,60%,1%,31.6 nM,–,–
CC(=O)[C@H]1CC[C@H]2[C@@H]3C=CC4=CC(=O)CC[C@@]4(C)[C@@H]3CC[C@]12CCCc1ccc(/C=N/O)cc1 [No. 2],200 nM,77%,10%,20 nM,–,–
CCNC(=O)O/N=C/c1ccc(CCC[C@]23CC[C@@H]4[C@@H](CCC5=CC(=O)CC[C@]54C)[C@@H]2CC[C@@H]3C(C)=O)cc1 [No. 4],501 nM,51%,4%,50.1 nM,–,–
CCNC(=O)O/N=C/c1ccc(CCC[C@]23CC[C@@H]4[C@@H](C=CC5=CC(=O)CC[C@]54C)[C@@H]2CC[C@@H]3C(C)=O)cc1 [No. 5],200 nM,52%,35%,5.01 nM,–,–
CCNC(=O)O/N=C/c1ccc(CCC[C@]23CC[C@@H]4[C@@H](C=CC5=CC(=O)CC[C@]54C)[C@@H]2CC[C@]3(OC(=O)OCC)C(C)=O)cc1 [No. 6],501 nM,32%,60%,–,50.1 nM,–
CC(=O)[C@H]1CC[C@H]2[C@@H]3C=CC4=CC(=O)CC[C@@]4(C)[C@@H]3CC[C@]12CCCc1ccc(C(N)=O)cc1 [No. 13],200 nM,79%,7%,50.1 nM,–,–
CC(=O)[C@H]1CC[C@H]2[C@@H]3C=CC4=CC(=O)CC[C@@]4(C)[C@@H]3CC[C@]12CCCc1ccccc1 [compound 17],–,79%,8%,–,25.1 nM,–
COc1cccc(CCC[C@]23CC[C@@H]4[C@@H](C=CC5=CC(=O)CC[C@]54C)[C@@H]2CC[C@@H]3C(C)=O)c1 [compound 25],–,73%,12%,–,15.8 nM,–
COc1cc(CCC[C@]23CC[C@@H]4[C@@H](C=CC5=CC(=O)CC[C@]54C)[C@@H]2CC[C@@H]3C(C)=O)cc(OC)c1 [compound 29],–,69%,15%,–,15.8 nM,–
"CC(=O)[C@H]1CC[C@H]2[C@@H]3C=CC4=CC(=O)CC[C@@]4(C)[C@@H]3CC[C@]12C [dydrogesterone, (9β,10α)-Pregna-4,6-diene-3,20-dione]",–,–,–,–,–,progesterone levels decrease
CC#C[C@]1(O)CC[C@H]2[C@@H]3CCC4=CC(=O)CCC4=C3[C@@H](c3ccc(N(C)C)cc3)C[C@@]21C [mifepristone],–,–,–,–,–,do not decline
